In PubChem BioAssay AID1963844 (Molecular Pharmacology Branch, DTP, NCI, 2024):

Test system: 422866-222-R5-J1-PDC complex spheroid viability
Assay: Anticancer human tumor 422866-222-R5-J1-PDC patient-derived pancreatic adenocarcinoma cell line growth inhibition [POLQ]
Conditions: for IC50: curve of first compound; for viability, T/C: stronger effect = lower value
Method in brief: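 PDC + HUVEC + MSC complex spheroids; POLQ inhibitors ± partner drugs; top conc. at/near clinical Cmax, else 10 microM (SN-38 1 microM), half-log dilutions; 37 degrees C, 5% CO2.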

[1] = second compound 0.0316 µM, first compound 0.0316 µM
[2] = second compound 0.0316 µM, first compound 0.1 µM
[3] = second compound 0.0316 µM, first compound 0.316 µM
[4] = second compound 0.0316 µM, first compound 1 µM
[5] = second compound 0.1 µM, first compound 0.0316 µM
[6] = second compound 0.1 µM, first compound 0.1 µM
[7] = second compound 0.1 µM, first compound 0.316 µM
[8] = second compound 0.1 µM, first compound 1 µM
[9] = second compound 0.316 µM, first compound 0.0316 µM
[10] = second compound 0.316 µM, first compound 0.1 µM
[11] = second compound 0.316 µM, first compound 0.316 µM
[12] = second compound 0.316 µM, first compound 1 µM
[13] = second compound 1 µM, first compound 0.0316 µM
[14] = second compound 1 µM, first compound 0.1 µM
[15] = second compound 1 µM, first compound 0.316 µM
[16] = second compound 1 µM, first compound 1 µM
[17] = second compound 3.16 µM, first compound 0.0316 µM
[18] = second compound 3.16 µM, first compound 0.1 µM
[19] = second compound 3.16 µM, first compound 0.316 µM
[20] = second compound 3.16 µM, first compound 1 µM
[21] = second compound 10 µM, first compound 0.0316 µM
[22] = second compound 10 µM, first compound 0.1 µM
[23] = second compound 10 µM, first compound 0.316 µM
[24] = second compound 10 µM, first compound 1 µM
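Also: spheroids exposed to compounds for one week before readout.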
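For viability, T/C in this document: percent of DMSO vehicle wells luminescence so 100% = untreated viability.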

With COc1cccc(OCCCN)c1-c1cc(Nc2cnc(C#N)cn2)n[nH]1 + Nc1ccc(C#CCN(C(=O)Cc2ncc(C(F)(F)F)cc2C(F)(F)F)c2ccc(F)cc2)nn1 as the compound, how does the IC50 (second compound 0.0316 µM) read?
The IC50 was 7.22 nM.

And the IC50 (second compound 0.1 µM)?
The IC50 was 6.75 nM.

What about the IC50 (second compound 0.316 µM) of the same compound?
Its IC50 is 5.8 nM.

What about the IC50 (second compound 1 µM) of the same compound?
The IC50 was 5.89 nM.

What about the IC50 (second compound 3.16 µM) of the same compound?
The IC50 was 5.87 nM.

What about the IC50 (second compound 10 µM) of the same compound?
Its IC50 is 7.34 nM.

And the viability, T/C (second compound 0.0316 µM, first compound 0.00316 µM)?
The viability, T/C was 82.4%.

What about the viability, T/C (second compound 0.0316 µM, first compound 0.01 µM) of the same compound?
The viability, T/C was 37.4%.

What about the viability, T/C [1] of the same compound?
Its viability, T/C is 33.4%.

And the viability, T/C [2]?
The viability, T/C was 30.5%.

And the viability, T/C [3]?
Its viability, T/C is 35.9%.

What about the viability, T/C [4] of the same compound?
The viability, T/C was 44.1%.

What about the viability, T/C (second compound 0.1 µM, first compound 0.00316 µM) of the same compound?
The viability, T/C was 62.6%.

What about the viability, T/C (second compound 0.1 µM, first compound 0.01 µM) of the same compound?
The viability, T/C was 45.9%.

What about the viability, T/C [5] of the same compound?
The viability, T/C was 33.6%.

What about the viability, T/C [6] of the same compound?
The viability, T/C was 32.8%.

And the viability, T/C [7]?
The viability, T/C was 36.8%.

What about the viability, T/C [8] of the same compound?
The viability, T/C was 54.3%.

And the viability, T/C (second compound 0.316 µM, first compound 0.00316 µM)?
Its viability, T/C is 60.3%.

And the viability, T/C (second compound 0.316 µM, first compound 0.01 µM)?
The viability, T/C was 40.4%.

And the viability, T/C [9]?
The viability, T/C was 36.1%.

What about the viability, T/C [10] of the same compound?
Its viability, T/C is 38.4%.

What about the viability, T/C [11] of the same compound?
Its viability, T/C is 27.1%.

And the viability, T/C [12]?
The viability, T/C was 38%.

What about the viability, T/C (second compound 1 µM, first compound 0.00316 µM) of the same compound?
The viability, T/C was 68.9%.

What about the viability, T/C (second compound 1 µM, first compound 0.01 µM) of the same compound?
The viability, T/C was 33.9%.

And the viability, T/C [13]?
The viability, T/C was 35%.

And the viability, T/C [14]?
Its viability, T/C is 38.6%.

What about the viability, T/C [15] of the same compound?
Its viability, T/C is 30.6%.

And the viability, T/C [16]?
The viability, T/C was 29.4%.

What about the viability, T/C (second compound 3.16 µM, first compound 0.00316 µM) of the same compound?
Its viability, T/C is 59.2%.

And the viability, T/C (second compound 3.16 µM, first compound 0.01 µM)?
The viability, T/C was 42.8%.

And the viability, T/C [17]?
Its viability, T/C is 38.5%.

What about the viability, T/C [18] of the same compound?
The viability, T/C was 29%.

What about the viability, T/C [19] of the same compound?
The viability, T/C was 32.2%.

What about the viability, T/C [20] of the same compound?
The viability, T/C was 44.8%.

What about the viability, T/C (second compound 10 µM, first compound 0.00316 µM) of the same compound?
The viability, T/C was 76.1%.

What about the viability, T/C (second compound 10 µM, first compound 0.01 µM) of the same compound?
The viability, T/C was 40.1%.

And the viability, T/C [21]?
The viability, T/C was 37.4%.

And the viability, T/C [22]?
Its viability, T/C is 36.5%.

What about the viability, T/C [23] of the same compound?
Its viability, T/C is 29%.

What about the viability, T/C [24] of the same compound?
The viability, T/C was 38.6%.

How did the IC50 (second compound 0.0316 µM) turn out when Nc1ccn(C2OC(CO)C(O)C2(F)F)c(=O)n1 (centres undefined) + Nc1ccc(C#CCN(C(=O)Cc2ncc(C(F)(F)F)cc2C(F)(F)F)c2ccc(F)cc2)nn1 was run?
Its IC50 is under 31.6 nM.

And the IC50 (second compound 0.1 µM)?
The IC50 was 55.2 nM.

And the IC50 (second compound 0.316 µM)?
The IC50 was 72.6 nM.

What about the IC50 (second compound 1 µM) of the same compound?
The IC50 was 71.5 nM.

And the IC50 (second compound 3.16 µM)?
Its IC50 is 118 nM.

What about the IC50 (second compound 10 µM) of the same compound?
The IC50 was 539 nM.

What about the viability, T/C [1] of the same compound?
Its viability, T/C is 57.9%.

And the viability, T/C [2]?
Its viability, T/C is 42.5%.

What about the viability, T/C [3] of the same compound?
The viability, T/C was 28.7%.

What about the viability, T/C [4] of the same compound?
The viability, T/C was 38.4%.

What about the viability, T/C (second compound 0.0316 µM, first compound 3.16 µM) of the same compound?
Its viability, T/C is 36.9%.

And the viability, T/C (second compound 0.0316 µM, first compound 10 µM)?
The viability, T/C was 39.2%.

And the viability, T/C [5]?
The viability, T/C was 62.2%.

And the viability, T/C [6]?
Its viability, T/C is 37.7%.

What about the viability, T/C [7] of the same compound?
Its viability, T/C is 30.6%.

And the viability, T/C [8]?
The viability, T/C was 32.4%.

And the viability, T/C (second compound 0.1 µM, first compound 3.16 µM)?
The viability, T/C was 38.1%.

And the viability, T/C (second compound 0.1 µM, first compound 10 µM)?
Its viability, T/C is 36.4%.

And the viability, T/C [9]?
The viability, T/C was 66.8%.

What about the viability, T/C [10] of the same compound?
Its viability, T/C is 43.5%.

And the viability, T/C [11]?
The viability, T/C was 30.4%.

And the viability, T/C [12]?
The viability, T/C was 40.1%.

And the viability, T/C (second compound 0.316 µM, first compound 3.16 µM)?
Its viability, T/C is 33.2%.

And the viability, T/C (second compound 0.316 µM, first compound 10 µM)?
The viability, T/C was 34.4%.

And the viability, T/C [13]?
Its viability, T/C is 75%.

And the viability, T/C [14]?
Its viability, T/C is 39.8%.

And the viability, T/C [15]?
Its viability, T/C is 36.8%.

And the viability, T/C [16]?
The viability, T/C was 34.3%.

What about the viability, T/C (second compound 1 µM, first compound 3.16 µM) of the same compound?
Its viability, T/C is 36.1%.

And the viability, T/C (second compound 1 µM, first compound 10 µM)?
Its viability, T/C is 49%.

And the viability, T/C [17]?
The viability, T/C was 72.8%.

What about the viability, T/C [18] of the same compound?
The viability, T/C was 52.5%.

What about the viability, T/C [19] of the same compound?
Its viability, T/C is 35.3%.

And the viability, T/C [20]?
The viability, T/C was 31.8%.

What about the viability, T/C (second compound 3.16 µM, first compound 3.16 µM) of the same compound?
The viability, T/C was 34.1%.

And the viability, T/C (second compound 3.16 µM, first compound 10 µM)?
The viability, T/C was 41%.

And the viability, T/C [21]?
The viability, T/C was 98.8%.

And the viability, T/C [22]?
The viability, T/C was 67.9%.

And the viability, T/C [23]?
Its viability, T/C is 68.8%.

And the viability, T/C [24]?
The viability, T/C was 34.8%.

What about the viability, T/C (second compound 10 µM, first compound 3.16 µM) of the same compound?
The viability, T/C was 31.7%.

What about the viability, T/C (second compound 10 µM, first compound 10 µM) of the same compound?
Its viability, T/C is 30.6%.
